What was measured:
[1] = test system: P. aeruginosa PAM1154 carrying pUCP24 vector (PAM4175); assay: MIC, CLSI broth microdilution; assay type: cell-based; details: Pseudomonas aeruginosa, drug alone
From the text: The effects of KPC mutations on resistance to various antibiotics were investigated. For these studies, pUCP24 plasmids carrying wild-type and mutant blaKPC-2 genes as well as the pUCP24 vector were transformed into PAM1154, an efflux-deficient strain of Pseudomonas aeruginosa. In this host, the effect of β-lactamases on β-lactam MIC is amplified due to the slowed uptake of β-lactams across the low-permeability outer membrane without interference by efflux of either β-lactams or BLIs. Consequently, this host allows detection of β-lactamase activity (as an MIC increase) of low-catalytic-efficiency enzymes that rely heavily on the low permeability of the outer membrane. Using the strain that lacks efflux pumps ensures no interference from efflux in interpreting results. We next evaluated the steady-state protein expression levels in bacterial cells. […] The observed discrepancy with our results could be attributed to the difference in either the expression vector or host bacteria.
(§1) For microbiological studies, wild-type blaKPC-2 and its mutant variants were cloned into the shuttle vector pUCP24. Resulting plasmids were transformed in the efflux-deficient strain of P. aeruginosa PAM1154 using selection on 15 μg/ml of gentamicin. Using a strain of P. aeruginosa as opposed to E. coli as a host for various cloned genes was based on the following consideration. As well documented elsewhere ([41]), P. aeruginosa has a low-permeability outer membrane; consequently, the effect of β-lactamases on MIC is amplified in P. aeruginosa compared to that in E. coli due to the slowed uptake of β-lactams. Thus, this host is appropriate to detect β-lactamase activity (as an MIC increase) of low-catalytic-efficiency enzymes that rely heavily on low permeability of the outer membrane. […] MICs were determined using the Clinical and Laboratory Standards Institute (CLSI) broth microdilution method as described in CLSI document M07-A11 ([42]). Potentiation of antibiotic activity by various BLIs in bacterial strains carrying wild-type (WT) and mutant KPC-2 genes was performed using standard checkerboard methodology ([43]). BLI potency was defined as PV50 (PV, potentiation value). PV50 is the minimal concentration of a BLI that is required to reduce the antibiotic MIC to the middle of the MIC range (E50) where the highest MIC is the MIC for a KPC-producing strain with no inhibitor added and the lowest MIC is the MIC for the vector-only strain, corresponding to the complete inhibition of KPC. E50 is calculated as the square root of the product of the antibiotic MICs for the KPC-producing and the vector-only strains.

[2] = test system: P. aeruginosa PAM1154 carrying KPC-2::D179Y (PAM4639); assay: Checkerboard potentiation of antibiotic activity by BLIs; assay type: cell-based, Pseudomonas aeruginosa; details: for increase of PV50 vs wild-type KPC-2: D179Y; for PV50: PAM4639 KPC-2::D179Y
From the text: (§2) BLI potency was defined as PV50 (PV, potentiation value) of antibiotic potentiation. PV50 is the concentration of a BLI that is required to reduce the antibiotic MIC to the middle of the MIC range where the highest MIC is the MIC for a KPC-producing strain with no inhibitor added and the lowest MIC is the MIC for the vector-alone strain, which corresponds to complete inhibition of KPC. As a given MIC is directly related to the β-lactamase activity, PV50 might be considered the concentration of a BLI that is required to achieve half-effect of inhibition of β-lactamase activity (in whole cells) to hydrolyze an antibiotic of interest. […] However, the accurate determination of PV50 requires the MIC range to be relatively wide.
as §1, with “Potentiation of antibiotic activity by various BLIs in bacterial strains carrying wild-type (WT) and mutant KPC-2 genes was performed using standard checkerboard methodology ([43]).” left out
(§3) […]
(§4) […]

[3] = test system: P. aeruginosa PAM1154 carrying KPC-2::L169P (PAM4751); assay: as above; assay type: cell-based, Pseudomonas aeruginosa; details: for PV50: PAM4751 KPC-2::L169P
From the text: as §2
as §1, with “Potentiation of antibiotic activity by various BLIs in bacterial strains carrying wild-type (WT) and mutant KPC-2 genes was performed using standard checkerboard methodology ([43]).” left out
as §3, §4

[4] = test system: P. aeruginosa PAM1154 carrying wild-type KPC-2 (PAM4135); assay: as above; assay type: cell-based, Pseudomonas aeruginosa; details: PAM4135 KPC-2
From the text: as §2
as §1, with “Potentiation of antibiotic activity by various BLIs in bacterial strains carrying wild-type (WT) and mutant KPC-2 genes was performed using standard checkerboard methodology ([43]).” left out
as §3, §4

KPC-2 = target: T1, KPC-2 (Klebsiella pneumoniae, UniProt Q9F663); assay: Inactivation kinetics (k2/K, k−2, Kd), nitrocefin reporter substrate method; assay type: biochemical; details: NCF hydrolysis, 37°C
T1 construct: 6xHis (C); made in house; host or cells: E. coli BL21(DE3) pLys, pET28a
Experimental: Inactivation kinetic parameters were determined by reporter substrate method for the slow tight binding inhibitor kinetic scheme ([45]). Protein was quickly mixed with 100 μM nitrocefin and various concentrations of BLI in reaction buffer, and absorbance at 490 nm was measured immediately every 2 s for 600 s on a SpectraMax plate reader (Molecular Devices, San Jose, CA) at 37°C. Resulting progression curves of OD490 versus time at various BLI concentrations were imported into Prism software (GraphPad, San Diego, CA), and pseudo-first-order rate constants (kobs) were calculated using the following equation: P=Vs×(1-e^-kobs^×^t)/kobs where Vs is enzyme nitrocefin cleavage rate in the absence of BLI. kobs values calculated at various vaborbactam concentrations were fitted in the following equation: kobs=k−2+k2/K×[I]/{1+[NCF]/Km(NCF)} where k2/K is the inactivation constant, [I] is inhibitor concentration, [NCF] is nitrocefin concentration, and Km(NCF) is the Michaelis constant of nitrocefin for KPC-2.

KPC-2 D179Y = target: T2, KPC-2 D179Y (Klebsiella pneumoniae, UniProt Q9F663, D178Y); details: D179Y substitution in KPC-2; cited from earlier work
T2 construct: 6xHis (C); made in house; host or cells: E. coli BL21(DE3) pLys, pET28a
T2 sequence (Q9F663 25-293 D178Y): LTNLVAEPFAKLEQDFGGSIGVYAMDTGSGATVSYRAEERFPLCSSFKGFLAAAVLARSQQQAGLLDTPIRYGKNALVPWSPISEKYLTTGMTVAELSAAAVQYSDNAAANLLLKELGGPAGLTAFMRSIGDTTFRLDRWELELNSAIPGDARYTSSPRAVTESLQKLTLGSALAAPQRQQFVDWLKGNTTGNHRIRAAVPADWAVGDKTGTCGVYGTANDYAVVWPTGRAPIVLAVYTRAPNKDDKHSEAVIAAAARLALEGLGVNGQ

T1 sequence (Q9F663 25-293 limits assumed): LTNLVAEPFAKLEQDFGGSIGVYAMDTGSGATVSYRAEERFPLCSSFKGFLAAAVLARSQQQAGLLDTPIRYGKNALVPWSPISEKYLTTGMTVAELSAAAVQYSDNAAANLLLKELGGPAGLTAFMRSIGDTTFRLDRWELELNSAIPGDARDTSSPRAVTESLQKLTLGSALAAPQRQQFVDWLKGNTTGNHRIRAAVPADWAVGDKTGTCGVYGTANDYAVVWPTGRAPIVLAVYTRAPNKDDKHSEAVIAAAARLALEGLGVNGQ

NC(=O)[C@@H]1CC[C@@H]2CN1C(=O)N2OS(=O)(=O)O [Avibactam, avibactam]
MIC [1]: 128 µg/mL | increase of PV50 vs wild-type KPC-2 ([2]; cefepime): 16 fold | increase of PV50 vs wild-type KPC-2 ([2]; ceftazidime): 32 fold | increase of PV50 vs wild-type KPC-2 ([2]; piperacillin): 4 fold | PV50 ([2]; potentiation of cefepime): 4 µg/mL | PV50 ([2]; potentiation of ceftazidime): 4 µg/mL | PV50 ([2]; potentiation of piperacillin): 1 µg/mL | increase of PV50 vs wild-type KPC-2 ([3]; L169P, cefepime): 4 fold | PV50 ([3]; potentiation of cefepime): 1 µg/mL | PV50 ([3]; potentiation of ceftazidime): 2 µg/mL | PV50 ([3]; potentiation of piperacillin): 2 µg/mL | PV50 ([4]; potentiation of cefepime): 0.25 µg/mL | PV50 ([4]; potentiation of ceftazidime): 0.125 µg/mL | k−2 (KPC-2): 3.3 ± 0.1 × 10^−4 s^−1 | decrease in the inactivation constant k2/K (KPC-2 D179Y): 70,000 fold
